Results taken from article PMC6429263, “Evolution and Antibacterial Evaluation of 8-Hydroxy-cycloberberine Derivatives as a Novel Family of Antibacterial Agents Against MRSA” (Molecules, 2019).
In brackets after ≈: the same amount, converted by molar mass. Read-outs that look alike come from different tables or passages of the source.

What was measured:
MRSA 16-34 = test: MIC, agar dilution, MRSA 16-34; format: cell-based; conditions: Staphylococcus aureus
MRSA 13-23 = test: MIC, agar dilution, MRSA 13-23; format: cell-based; conditions: Staphylococcus aureus
MRSA ATCC -BAA-976 = test: MIC, agar dilution, MRSA ATCC-BAA-976 (clindamycin-resistant); format: cell-based; conditions: Staphylococcus aureus
MSSE ATCC 12228 = test: MIC, agar dilution, MSSE ATCC 12228; format: cell-based, S. epidermidis; conditions: Staphylococcus epidermidis
MRSE 16-5 = test: MIC, agar dilution, MRSE 16-5; format: cell-based, S. epidermidis; conditions: Staphylococcus epidermidis
MRSA ATCC-B AA-1708 = test: MIC, agar dilution, MRSA ATCC-BAA-1708 (mupA positive); format: cell-based; conditions: Staphylococcus aureus
S.s ATCC 15305 = test: MIC, agar dilution, S.s ATCC 15305; format: cell-based; conditions: Staphylococcus saprophyticus, ATCC15305
VISA ATCC 700698 = test: MIC, agar dilution, VISA ATCC 700698; format: cell-based; conditions: Staphylococcus aureus
MRSE 13-3 = test: MIC, agar dilution, MRSE 13-3; format: cell-based, S. epidermidis; conditions: Staphylococcus epidermidis
MSSA ATCC 29213 = test: MIC, agar dilution, MSSA ATCC 29213; format: cell-based, S. aureus; conditions: Staphylococcus aureus
MRSA ATCC 43300 = test: MIC, agar dilution, MRSA ATCC 43300; format: cell-based; conditions: Staphylococcus aureus
MSSE 16-5 = test: MIC, agar dilution, MSSE 16-5 (clinical isolate); format: cell-based, S. epidermidis; conditions: Staphylococcus epidermidis
VISA ATCC 700699 = test: MIC, agar dilution, VISA ATCC 700699; format: cell-based; conditions: Staphylococcus aureus
MSSA 15 = test: MIC, agar dilution, MSSA 15 (clinical isolate); format: cell-based, S. aureus; conditions: Staphylococcus aureus
MSSA 16-1 = test: MIC, agar dilution, MSSA 16-1 (clinical isolate); format: cell-based, S. aureus; conditions: Staphylococcus aureus
S.h ATCC 35982 = test: MIC, agar dilution, S.h ATCC 35982; format: cell-based; conditions: Staphylococcus hominis, ATCC35982
MRSA 13-18 = test: MIC, agar dilution, MRSA 13-18; format: cell-based; conditions: Staphylococcus aureus
[1] = MRSA ATCC-BAA-976, clindamycin-resistant S. aureus, read-out: MIC
[2] = ATCC12228, MSSE ATCC 12228, read-out: MIC
[3] = MRSA ATCC-BAA-1708, mupA positive (mupirocin resistance), read-out: MIC
[4] = S. saprophyticus ATCC 15305, read-out: MIC
[5] = VISA ATCC 700698, read-out: MIC
[6] = MSSE 16-5, isolated from patients in China, read-out: MIC
[7] = VISA ATCC 700699, read-out: MIC
[8] = MSSA 15, isolated from patients in China, read-out: MIC
[9] = MSSA 16-1, isolated from patients in China, read-out: MIC
[10] = S. hominis ATCC 35982, read-out: MIC

Compound	MIC (MRSA 16-34; MRSA 16-34, read-out: MIC) [µg/mL]	MIC (MRSA 13-23; MRSA 13-23, read-out: MIC) [µg/mL]	MIC (MRSA ATCC -BAA-976; [1]) [µg/mL]	MIC (MSSE ATCC 12228; [2]) [µg/mL]	MIC (MRSE 16-5; MRSE 16-5, read-out: MIC) [µg/mL]	MIC (MRSA ATCC-B AA-1708; [3]) [µg/mL]	MIC (S.s ATCC 15305; [4]) [µg/mL]	MIC (VISA ATCC 700698; [5]) [µg/mL]	MIC (MRSE 13-3; MRSE 13-3, read-out: MIC) [µg/mL]	MIC (MSSA ATCC 29213; MSSA ATCC 29213, read-out: MIC) [µg/mL]	MIC (MRSA ATCC 43300; MRSA ATCC 43300, read-out: MIC) [µg/mL]	MIC (MSSE 16-5; [6]) [µg/mL]	MIC (VISA ATCC 700699; [7]) [µg/mL]	MIC (MSSA 15; [8]) [µg/mL]	MIC (MSSA 16-1; [9]) [µg/mL]	MIC (S.h ATCC 35982; [10]) [µg/mL]	MIC (MRSA 13-18; MRSA 13-18, read-out: MIC) [µg/mL]	further results
C[C@H]1COc2c(N3CCN(C)CC3)c(F)cc3c(=O)c(C(=O)O)cn1c23 [Lev, levofloxacin, reference compound]	64 (≈ 177 µM)	64 (≈ 177 µM)			8 (≈ 22.1 µM)	16 (≈ 44.3 µM)	1 (≈ 2.77 µM)	32 (≈ 88.6 µM)	32 (≈ 88.6 µM)		32 (≈ 88.6 µM)		8 (≈ 22.1 µM)		0.25 (≈ 0.692 µM)		32 (≈ 88.6 µM)	MIC (MRSA ATCC -BAA-976): 0.125 µg/mL (≈ 0.346 µM); MIC (MSSE ATCC 12228; ATCC12228, 18 h, MSSE ATCC 12228, read-out: MIC): 0.126 µg/mL (≈ 0.349 µM); MIC (MSSA ATCC 29213): 0.125 µg/mL (≈ 0.346 µM); MIC (MSSE 16-5): 0.125 µg/mL (≈ 0.346 µM); MIC (MSSA 15; MSSA): 0.125 µg/mL (≈ 0.346 µM); MIC (S.h ATCC 35982): 0.125 µg/mL (≈ 0.346 µM)
COc1ccc2c(c[n+]3ccc4cc5c(c6c(Cc7ccc([N+](=O)[O-])cc7)cc2c3c46)OCO5)c1O [13r, 1,2-Methylenedioxy-8-hydroxy-9-methoxy-13-p-nitrobenzylcycloberberine chloride]	8	8	32	4	16	4	32	4	> 64	16	64	4	4	8	16	8	32	
COc1ccc2c(c[n+]3c4c2ccc2c5c(cc(c24)CC3)OCO5)c1O [compound 1, reference compound]																		MIC (MRSA 16-34; MRSA): 0.5 µg/mL; MIC (MRSA 13-23; MRSA): 1 µg/mL; MIC (MRSA ATCC -BAA-976): 1 µg/mL; MIC (MSSE ATCC 12228; ATCC12228): 0.5 µg/mL; MIC (MRSE 16-5; MRSE): 0.5 µg/mL; MIC (MRSA ATCC-B AA-1708): 0.5 µg/mL; MIC (S.s ATCC 15305): > 64 µg/mL; MIC (VISA ATCC 700698): 1 µg/mL; MIC (MRSE 13-3; MRSE): > 64 µg/mL; MIC (MSSA ATCC 29213): 0.5 µg/mL; MIC (MRSA ATCC 43300): 0.5 µg/mL; MIC (MSSE 16-5): 0.5 µg/mL; MIC (VISA ATCC 700699): 0.5 µg/mL; MIC (MSSA 15; MSSA): 4 µg/mL; MIC (MSSA 16-1; MSSA): 1 µg/mL; MIC (S.h ATCC 35982): 1 µg/mL; MIC (MRSA 13-18; MRSA): 1 µg/mL
COc1ccc2c(c[n+]3ccc4cc5c(c6c(Cc7cccc([N+](=O)[O-])c7)cc2c3c46)OCO5)c1O [13q, 1,2-Methylenedioxy-8-hydroxy-9-methoxy-13-m-nitrobenzylcycloberberine chloride]	> 64	> 64	64	64	32	> 64	> 64	> 64	64	> 64	> 64	32	64	> 64	64	64	> 64	

Further lines, with some results ahead:

MIC (MRSA 16-34; MRSA 16-34, read-out: MIC) [µg/mL]	MIC (MRSA 13-23; MRSA 13-23, read-out: MIC) [µg/mL]	MIC (MRSA ATCC -BAA-976; [1]) [µg/mL]	MIC (MSSE ATCC 12228; [2]) [µg/mL]	MIC (MRSE 16-5; MRSE 16-5, read-out: MIC) [µg/mL]	MIC (MRSA ATCC-B AA-1708; [3]) [µg/mL]	MIC (S.s ATCC 15305; [4]) [µg/mL]	MIC (VISA ATCC 700698; [5]) [µg/mL]	MIC (MRSE 13-3; MRSE 13-3, read-out: MIC) [µg/mL]	MIC (MSSA ATCC 29213; MSSA ATCC 29213, read-out: MIC) [µg/mL]	MIC (MRSA ATCC 43300; MRSA ATCC 43300, read-out: MIC) [µg/mL]	MIC (MSSE 16-5; [6]) [µg/mL]	MIC (VISA ATCC 700699; [7]) [µg/mL]	MIC (MSSA 15; [8]) [µg/mL]	MIC (MSSA 16-1; [9]) [µg/mL]	MIC (S.h ATCC 35982; [10]) [µg/mL]	MIC (MRSA 13-18; MRSA 13-18, read-out: MIC) [µg/mL]	Compound	further results
8	8	4	8	8	8	16	4	16	8	4	8	4	4	4	4	4	CCCCc1cc2c3ccc(OC)c(O)c3c[n+]3ccc4cc5c(c1c4c23)OCO5 [15c, 1,2-Methylenedioxy-8-hydroxy-9-methoxy-13-butylcycloberberine chloride]	
16	32	32	32	16	16	64	32	16	32	32	16	32	32	32	32	32	COc1ccc2c(c[n+]3ccc4cc5c(c6c(Cc7cc(C)cc(C)c7)cc2c3c46)OCO5)c1O [13j, 1,2-Methylenedioxy-8-hydroxy-9-methoxy-13-3′,5′-dimethylbenzylcycloberberine chloride]	
> 64	> 64	> 64	> 64	32	> 64	> 64	> 64	> 64	> 64	> 64	> 64	> 64	> 64	> 64	> 64	> 64	COc1ccc2c(c[n+]3ccc4cc5c(c6c(Cc7c(F)cccc7F)cc2c3c46)OCO5)c1O [13d, 1,2-Methylenedioxy-8-hydroxy-9-methoxy-13-2′,6′-difluorobenzylcycloberberine chloride]	
> 64	> 64	> 64	16	32	> 64	> 64	> 64	64	> 64	> 64	32	> 64	> 64	> 64	64	> 64	COc1ccc2c(c[n+]3ccc4cc5c(c6c(Cc7cccc(C#N)c7)cc2c3c46)OCO5)c1O [13n, 1,2-Methylenedioxy-8-hydroxy-9-dimethoxy-13-m-cyanbenzylcycloberberine chloride]	
8	8	8	8	8	4	16	8	8	8	8	8	8	8	8	8	16	COc1ccc2c(c[n+]3ccc4cc5c(c6c(Cc7ccc(F)cc7F)cc2c3c46)OCO5)c1O [13c, 1,2-Methylenedioxy-8-hydroxy-9-methoxy-13-2′,4′-difluorobenzylcycloberberine chloride]	
2	4	2	2	2	2	8	4	4	2	4	1	2	2	2	2	4	CCCc1cc2c3ccc(OC)c(O)c3c[n+]3ccc4cc5c(c1c4c23)OCO5 [15b, 1,2-Methylenedioxy-8-hydroxy-9-methoxy-13-propylcycloberberine chloride]	
16	32	16	16	8	8	32	32	8	32	32	8	32	32	16	32	16	COc1ccc2c(c[n+]3ccc4cc5c(c6c(Cc7ccc(C(C)(C)C)cc7)cc2c3c46)OCO5)c1O [13k, 1,2-Methylenedioxy-8-hydroxy-9-methoxy-13-p-tert-butylmethylbenzylcyclo berberine chloride]	
